In patent US8410056B2, “Pro-oxidant anti-cancer compounds” (priority 2006, dated 2013):
“Also recorded” adds a separate entry of the source.

Key:
MCF-7 tumors = test: MCF-7 xenograft in nude mice; type: in vivo; settings: 10 μmoles i.p. every 3 d
[1] = target: T1, SDH/Complex II, isolated rat liver mitochondria (Rattus norvegicus, UniProt P21913+Q641Z9+Q6PCT8); test: SDH/Complex II activity, DCIP/PMS assay; type: biochemical; settings: 100 or 300 μM α-TOS; compared to control
T1 construct: Rat liver mitochondria were prepared by differential centrifugation; from tissue; host or cells: rat liver mitochondria / sub-mitochondrial particles
T1 sequence (P21913 31-282): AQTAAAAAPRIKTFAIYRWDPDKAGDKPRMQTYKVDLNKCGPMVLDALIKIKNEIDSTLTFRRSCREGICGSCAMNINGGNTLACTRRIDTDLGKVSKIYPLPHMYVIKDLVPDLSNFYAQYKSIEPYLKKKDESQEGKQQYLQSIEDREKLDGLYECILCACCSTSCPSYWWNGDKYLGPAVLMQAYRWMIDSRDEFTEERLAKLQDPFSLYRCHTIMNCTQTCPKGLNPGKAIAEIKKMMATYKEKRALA
T1 sequence (Q641Z9 30-169 limits assumed): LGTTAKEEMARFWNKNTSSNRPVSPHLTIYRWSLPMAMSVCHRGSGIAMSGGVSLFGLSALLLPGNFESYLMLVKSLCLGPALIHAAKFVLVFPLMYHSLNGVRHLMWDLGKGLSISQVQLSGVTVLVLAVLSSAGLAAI
T1 sequence (Q6PCT8 57-159): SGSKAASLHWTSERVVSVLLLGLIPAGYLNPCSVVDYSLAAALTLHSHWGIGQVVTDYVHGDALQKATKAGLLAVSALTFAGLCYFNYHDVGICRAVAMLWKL
T1 sequence (Q920L2 35-656 partner): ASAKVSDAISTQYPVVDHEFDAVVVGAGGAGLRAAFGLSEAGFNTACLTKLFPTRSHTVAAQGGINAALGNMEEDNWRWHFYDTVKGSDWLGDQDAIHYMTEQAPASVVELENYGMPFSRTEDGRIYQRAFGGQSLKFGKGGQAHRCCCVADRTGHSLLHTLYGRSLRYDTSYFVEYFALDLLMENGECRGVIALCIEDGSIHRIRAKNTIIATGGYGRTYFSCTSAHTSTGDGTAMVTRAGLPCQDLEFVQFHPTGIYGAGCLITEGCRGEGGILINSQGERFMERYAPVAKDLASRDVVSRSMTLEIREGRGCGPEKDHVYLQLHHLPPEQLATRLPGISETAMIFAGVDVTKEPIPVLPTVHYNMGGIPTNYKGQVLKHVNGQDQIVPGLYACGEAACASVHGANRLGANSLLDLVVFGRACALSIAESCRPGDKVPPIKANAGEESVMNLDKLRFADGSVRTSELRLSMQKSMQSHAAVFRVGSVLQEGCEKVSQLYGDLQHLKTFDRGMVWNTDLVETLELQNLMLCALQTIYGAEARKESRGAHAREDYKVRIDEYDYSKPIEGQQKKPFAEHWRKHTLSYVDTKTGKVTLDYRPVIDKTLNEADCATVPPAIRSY
Protocol: Preparation of sub-mitochondrial particles (SMPs) from isolated rat liver. Rat liver mitochondria were prepared by differential centrifugation according to the modified method of Rice and Lindsay, 1997. 2 ml of mitochondrial pellet were resuspended in 15 ml of 20 mM KH2 PO4 pH 7.4 and sonicated at a setting of 80 Watt for 3×15 s. The sonicated solution was then centrifuged at 6,500×g for 7 min. The supernatant fraction was kept on ice and the remaining pellet resuspended and sonicated again. The sonicated solution was centrifuged as before and the supernatant removed from the second centrifugation step combined with that from the first centrifrugation. The combined supernatant was recentrifitged at 108,000×g for 1 h. The pellet of SMPs was resuspended in 5 ml of 20 mM KH2PO4 pH 7.4 and stored frozen at −20° C. until used.
Measurement of mitochondrial complex II and complex I activity. A time course for the reduction of the complex II substrate 2,6-dichlorophenol indophenol (DCIP) by the mitochondrial preparations was followed by measuring the absorbance at 600 nm in 1 cm cuvettes containing a 1 ml reaction volume (ε600=21×10^3 M^−1cm^−1). The reaction components included NADH, 0.5 mM; succinate, 5 mM; KCN, 10 mM; DCIP, 50 μM; PMS, 50 μM. […] The change in absorbance of DCIP was measured using a spectrophotometer (UVIKON XL, Secomam) and replicate samples were assayed (n=3). […]

mesothelioma = test: Clinical study, patient with mesothelioma; type: in vivo
Protocol: α-TOS was used to treat mesothelioma in a human cancer patient. […] The blood plasma levels were monitored and levels of α-TOS in the plasma attained 50 μM over prolonged periods during continual application. This is more than sufficient to kill the cancer cells based on in vitro analysis.
The patient was originally receiving high dose opiate medications, neuropathic pain medications, home oxygen, and was predicted to have a life expectancy of 6-8 weeks. After treatment with α-TOS, the patient no longer required analgesia or oxygen.
In December 2005, the patient started receiving transdermal delivery of α-TOS, prepared in a base cream and solubilised with dimethyl sulfoxide (DMSO).
In April 2007, therapy with α-TOS was commenced using a modified formulation mixed in a lipodermal cream (see below). […] In addition, a palpable lesion was visible growing out between the ribs and the right anterior chest wall. The patient was in very poor condition with a low ECOG- no CT scan could be performed at the time of commencing the α-TOS treatment because the patient was too moribund.
α-TOS formulation: 500 gms of Lipoderm cream plus 60 gms α-TOS compounded by the hospital pharmacy. About 30 gms of compounded mix was administered every few days, and the upper body was wrapped in plastic film (“saran wrap”) to improve absorption.

cancer cells = test: IC50, killing of cancer cells in vitro; type: cell-based; settings: approximately
Excerpt: FIG. 9. […] IC50: Concentration in micromolar that is needed of a particular drug to induce 50% killing of cancer cells in vitro. −log Kd: inverse log of the particular drug's binding affinity.
In FIG. 9, the inventors analysed the correlation between the binding affinities of the vitamin E analogues for the ubiquinone site and their biological activity in causing apoptosis of cancer cells. The result indicates a direct relationship between the binding affinity to the site and their ability to kill cancer cells. The differences observed between the docking and the list of results reflects the biological accessibility of the compounds reaching the complex II target site. Thus, the IC50 reflects not only the ability of the analogues to bind to the site, but also their ability to enter across the cell membrane and gain access to the mitochondrial matrix. […] The best comparison would be made by comparing the Autodock results with an enzyme assay using purified complex II kits commercially available (MS201 COMPLEX II IMMUNOCAPTURE KIT MitoScience LLC, 1850 Millrace Drive, Suite 3A, Eugene, Oreg. 97403, USA, http://www.mitosciences.com).

[2] = tested on: erbB2 highly positive breast carcinomas
Protocol: (A) Nude mice were inoculated with MCF-7 cells and, after tumors became established, the animals were treated once every 3 d with 10 μmoles per mouse of α-TOS dissolved in DMSO or with DMSO alone, by intraperitoneal (i.p.) injection. Tumor size was measured using calipers and was correlated to the size of the carcinomas at the onset of the therapy. Four animals were used in each group. The results shown are mean values±S.E. The symbol ‘*’ denotes significant difference (p<0.05). (B) Female FVB/N erbB2 mice with palpable tumors (see General Materials and Methods) received either 10 μmoles α-TOS solubilized in corn oil/4% ethanol (n=11) or the corn oil/4% ethanol alone (control, n=9) by i.p. injection once every 3 d, or 0.2 μmoles 3-BP (n=8) in PBS at the tumor site every day. Tumor size was recorded using calipers. Two independent experiments were conducted. Results are represented as mean values±S.E. The symbol ‘*’ denotes significant difference (p<0.05) in the analysis of variance between the 3-BP and α-TOS curves.
Mouse tumor experiments. Nude mice were inoculated subcutaneously with MCF-7 cells (2×10^6 cells/mouse). After tumors developed (diameter of 3-7 mm), mice were injected intraperitoneally with 10 μmoles α-TOS in DMSO every 3 days. Control mice were injected with an equal volume (100 μl) of DMSO only. Tumor size was estimated by measuring with digital calipers. A colony of transgenic FVB/N2O2 rat c-neu mice carrying the rat HER-2/neu protooncogene driven by the MMTV promoter on the H-2^q FVB/N background (Guy et al, 1992) was established at the Griffith University Animal Facility and maintained under strict inbreeding conditions. The presence of the transgene was routinely confirmed by PCR. Approximately 70% of the female mice developed spontaneous mammary carcinomas with a mean latency time of 10 months. Female transgenic FVB/N2O2 rat c-neu mice bearing progressively growing tumors with a mean diameter of 10±5 mm were randomly assigned to control or treatment groups. Tumor size was measured using digital calipers. […]

[3] = cited from earlier work

## Cc1c(C)c2c(c(C)c1OC(=O)CCC(=O)O)CC[C@@](C)(CCC[C@H](C)CCC[C@H](C)CCCC(C)C)O2 [Compound 1, α-tocopheryl succinate]
MCF-7 tumors
  tumor growth: repressed the growth of tumors in the treated group of mice with an overall reduction in tumor size
[1]
  rate of reduction of DCIP (SDH/Complex II activity): decreased rapidly and significantly after treatment with α-TOS
mesothelioma; human patient, α-TOS therapy
  clinical effect: worked very effectively; also recorded: shrunk dramatically
  side effects: non-toxic with no observable side-effects and was well tolerated; also recorded: no obvious side-effects from the α-TOS therapy apart from a mild itch
mesothelioma; human, transdermal, continual application, over prolonged periods
  levels of α-TOS in the plasma: 50 µM
mesothelioma; transdermal α-TOS in base cream solubilised with DMSO
  clinical response, DMSO base cream: showed clinical response
mesothelioma; transdermal α-TOS in base cream solubilised with DMSO, about 8 weeks
  side effects, DMSO base cream: major skin reaction problems secondary to DMSO
Cancer cells
  IC50: 40 to 50 µM
[2]; about, over the 2 weeks of treatment, 10 μmoles i.p. every 3 d
  reduction in the average size of tumors: 30-40%
[2]; α-TOS 10 μmoles i.p. every 3 d, 3-BP 0.2 μmoles daily intratumorally
  tumor growth: statistically more effective (p<0.05 by analysis of covariance) than 3-BP
[3]
  pKa: < 6
